Data on 53 molecules can be found in patent publication US20210220408A1, “ARYL HYDROCARBON RECEPTOR ANTAGONISTS AND METHODS OF USE” (Magenta Therapeutics Inc., priority 2018, published 2021).

In test [1] the test system is mobilized peripheral blood CD34+ cells. In words: CD34+ expansion assay. In kind it is cell-based. The note with it: Homo sapiens; read-out: CD34 Frequency EC50. The protocol: Approximately 3,000 mobilized peripheral blood CD34+ cells were plated per well in 384-well plate at a final volume of 45 μL in HSC growth media (SFEM supplemented with Pen/Strep, 50 ng/mL FLT3L, TPO, SCF and IL-6). Serial dilutions were made in HSC growth media with a top final concentration of 10 μM. 5 μL 10× stock was added to each well. The plate was gently tapped on all sides and incubated for 7 days at 37° C./5% CO2. On day 7, the media was aspirated on a Biotek plate washer and 30 μL staining solution was added to the cells with antibodies against CD34-PE, CD90-APC, CD45RA-PE-CF594 in PBS. Cells were washed once in PBS and resuspended in 80 μL for final volume. 40 μL was acquired by flow cytometry (BD Celesta).

The target in test [2] is T1, aryl hydrocarbon receptor (AHR) (Homo sapiens, UniProt P35869).
T1 sequence (P35869 11-848): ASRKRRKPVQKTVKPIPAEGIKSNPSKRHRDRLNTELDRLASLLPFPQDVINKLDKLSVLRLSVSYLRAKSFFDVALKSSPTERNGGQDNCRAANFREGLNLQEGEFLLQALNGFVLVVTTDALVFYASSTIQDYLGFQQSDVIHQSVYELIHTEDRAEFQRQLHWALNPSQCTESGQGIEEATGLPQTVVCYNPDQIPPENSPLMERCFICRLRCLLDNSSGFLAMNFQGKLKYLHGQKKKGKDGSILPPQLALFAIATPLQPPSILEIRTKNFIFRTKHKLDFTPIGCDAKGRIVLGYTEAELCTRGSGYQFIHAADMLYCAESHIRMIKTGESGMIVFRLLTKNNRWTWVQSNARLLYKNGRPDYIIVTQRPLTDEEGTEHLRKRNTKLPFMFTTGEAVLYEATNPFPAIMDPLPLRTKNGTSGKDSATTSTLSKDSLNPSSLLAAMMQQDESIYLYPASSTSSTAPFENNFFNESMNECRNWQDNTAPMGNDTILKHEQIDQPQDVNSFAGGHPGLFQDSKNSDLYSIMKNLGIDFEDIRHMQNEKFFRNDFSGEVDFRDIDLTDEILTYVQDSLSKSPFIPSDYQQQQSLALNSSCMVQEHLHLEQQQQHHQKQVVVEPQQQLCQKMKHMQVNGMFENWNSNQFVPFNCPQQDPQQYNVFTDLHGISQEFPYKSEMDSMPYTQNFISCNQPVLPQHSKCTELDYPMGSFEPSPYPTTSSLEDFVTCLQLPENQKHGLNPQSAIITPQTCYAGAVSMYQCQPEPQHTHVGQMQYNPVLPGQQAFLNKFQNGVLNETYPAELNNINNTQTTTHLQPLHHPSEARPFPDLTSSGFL
Nature of the test: DRE-Luciferase reporter high-throughput screen (AHR antagonist, VAF347-activated). For orientation: A reporter such as luciferase makes a cellular process visible.
From the text: HepG2 hepatocellular carcinoma cells were transfected with a dioxin-response element (DRE) Firefly luciferase reporter construct. Luciferase transcription was activated with the aryl hydrocarbon receptor (AHR) agonist, VAF347. Addition of an AHR antagonist results in inhibition of the luciferase transcription and a loss of signal in the assay.
HepG2, a hepatocellular carcinoma cell line, was transfected with the dioxin-response element Firefly luciferase reporter construct using the TransIT-transfection system. Prior to transfection, HepG2 cells (Sigma) were cultured at 90% confluency in Eagle's Modified Essential Medium (Sigma)+2 mM Glutamine (Sigma), +1^% Non Essential Amino Acids (Sigma)+10% Fetal Bovine Serum (Hyclone) and harvested and counted (Biorad TC20 cell counter). OptilMEM serum-free media and TransIT (Mirus) were mixed for transfection in 150 mm dishes by adding 240 μL Transit to 3.0 mL OptiMEM, vortexing briefly to mix, and incubating at room temperature for 20 minutes. The DNA mixture was prepared by adding 80 μg plasmid (pGudLuc6.1 plasmid, Garrison et al., (1996) Fundam. Appl. Toxicol., 30, 194-203), inverting to mix, and incubating at room temperature for 30 minutes. 30×10^6 HepG2 cells were seeded in 30 mL media and 3.3 mL of the DNA, OptiMEM, and TransIT mixture was added dropwise to the plate. The plate was mixed by rocking and incubated at 37° C./5% CO2 overnight. The next day, cells were harvested by aspirating media, washing once with sterile phosphate buffered saline (PBS, Gibco), trypsinzing with 0.05% Trypsin (Corning) and harvesting cells with culture medium, and freezing with Cell Freezing Media (Gibco) at 5 50×10^6 cells/vial in 1 mL/vial.
Transiently-transfected frozen HepG2 cells with DRE-Luciferase, were thawed in a 37° C. water bath and resuspended in complete media. 4 μL cells at 15,000 cells per well was transferred into the wells of a 1536-well Alphaplate assay plate (PerkinElmer) using TEMPEST liquid dispenser. The plate was centrifuged at 1000 rpm for 1 minute. 30 nL of the controls (1 μM (S)-2-(6-((2-(1H-indol-3-yl)ethyl)amino)-2-(5-fluoropyridin-3-yl)-9H-purin-9-yl)propan-1-ol or 100% DMSO) were transferred to the assay plate using the Pin Tool on BRAVO. 1 μL of VAF347 (15 nM final concentration) in complete media was added to the wells using TEMPEST. The plate was centrifuged at 1000 rpm for 1 minute and incubated at 37° C./5% CO2 overnight. After incubation, the plate was removed from the incubator and brought to room temperature. 2 μL of room temperature Steady-Glo luciferase detection reagent (Promega) was added to the wells with TEMPEST. The plate was centrifuged at 2000 rpm for 1 minute, sealed with clear plastic seal and kept at room temperature for 15 minutes prior to measuring luminescence on ENVISION.
Approximately 166,000 compounds were screened in 132 1536-well plates in the luciferase reporter gene assay at a final concentration of 12 μM. […] Each compound was tested at 0.1 μM, 1.0 μM, and 10 μM in the DRE luciferase assay and Cell Titer Glo cytotoxicity assay (Promega). […] 512 compounds were selected for 10-point dose-response in the AHR luciferase reporter assay and the Cell Titer Glo cytotoxicity assay.

pEC50, pIC50: −log10 of the molar value.

For `O=C(Nc1ccccc1Cl)c1cnc(-c2noc3ccccc23)s1` [compound 23], the pEC50 (in general, the negative decadic logarithm of the EC50, by convention in mol/L) in test [1] was 6.00 to 6.30. Besides, the pIC50 (in general, the negative decadic logarithm of the IC50, by convention in mol/L) in test [2] is 6.30 to 6.70.
With `O=C(Nc1ccc(-c2nnc3n2CCCCC3)cc1)c1cccc2cccnc12` [compound 24], the pEC50 in test [1] was 6.00 to 6.30. Further, the pIC50 in test [2] was 6.30 to 6.70.
The matching figures for `Cc1noc(C)c1C(=O)Nc1ccc(-c2nc3ccccc3o2)cc1` [compound 25]: 6.00 to 6.30 and 6.30 to 6.70.
The corresponding values for `Cc1cc(Oc2ncccc2C#N)ccc1NC(=O)c1oc(Br)cc1C` [compound 26] are 5.30 to 6.00 and 6.30 to 6.70.
`CC(C)(C)c1ccc(O)c(NC(=O)c2cnc3ccccn3c2=O)c1` [compound 27]: in test [1], the pEC50 is 5.30 to 6.00. Also, in test [2], the pIC50 was 6.00 to 6.30.
Regarding `COc1ccc(-n2nnc(C(=O)Nc3ccccc3C(F)(F)F)c2N)cc1` [compound 28], the pEC50 in test [1] is 5.30 to 6.00. Also, the pIC50 in test [2] was 6.30 to 6.70.
Consider `Cc1ccc(C)c(NC(=O)c2nc3c(s2)CCCN3c2ccc(C)nn2)c1` [compound 29], for which, in test [1], the pEC50 is 5.30 to 6.00. Moreover, in test [2], the negative logarithm of the IC50 (pIC50) is 6.00 to 6.30.
The matching figures for `CC(=O)N(C)Cc1cccc(NC(=O)c2n[nH]c3ccccc23)c1` [compound 30]: at most 5.30 and 6.00 to 6.30.
Consider `CCc1cc(C(=O)Nc2ccc(SC)cc2)sc1C` [compound 38], for which, in test [1], the pEC50 was 5.30 to 6.00. Further, the pIC50 in test [2] was 6.00 to 6.30.
The corresponding values for `COC(=O)c1sc(NC(=O)c2cc(C)n(C)n2)cc1C` [compound 41] are at most 5.30 and above 6.70.
Regarding `Cc1ccc(-c2c(C)sc(NC(=O)c3cccnc3)c2C(N)=O)cc1` [compound 42], the pEC50 in test [1] is 5.30 to 6.00. Further, the pIC50 in test [2] is 6.00 to 6.30.
The corresponding values for `CCc1ccc(C(=O)Nc2scc(-c3ccc(Cl)cc3)c2C(N)=O)s1` [compound 43] are 6.00 to 6.30 and 6.30 to 6.70.
The corresponding values for `Cc1noc(C)c1C(=O)Nc1ccc2oc(-c3cc(F)ccc3Br)nc2c1` [compound 45] are 6.00 to 6.30 and above 6.70.
Turning to `O=C(Nc1ccc(N2CCCC2)nc1)c1cc2c(F)cccc2s1` [compound 46], the pEC50 in test [1] was 6.00 to 6.30. This molecule showed a pIC50 in test [2] of 6.30 to 6.70.
The matching figures for `CCC(=O)N1CCc2cc(C(=O)Nc3ccn(CCc4ccccn4)n3)ccc21` [compound 47]: 5.30 to 6.00 and 6.00 to 6.30.
Turning to `Cc1ccc(-c2csc(-c3ccncc3)n2)c(C)c1` [compound 52], in test [1], the pEC50 was 5.30 to 6.00. Also, the pIC50 in test [2] was 6.00 to 6.30.
In the case of `Nc1c(-c2nc(-c3ccccc3)cs2)nnn1-c1ccc(F)cc1` [compound 53], in test [1], the pEC50 was 6.00 to 6.30. The pIC50 in test [2] was 6.00 to 6.30.
As to `c1ccc(-c2nnc(-c3csc(-c4cccnc4)n3)o2)cc1` [compound 57], the pEC50 in test [1] was 6.00 to 6.30. Besides, in test [2], the pIC50 is 6.30 to 6.70.
For `O=c1[nH]c2ccc(-c3csc(-c4ccccn4)n3)cc2[nH]1` [compound 58], the pEC50 in test [1] is at most 5.30. This molecule gave a pIC50 in test [2] of 6.00 to 6.30.
The matching figures for `COc1ccc(Nc2nc(-c3ccccn3)cs2)cc1` [compound 59]: above 6.30 and 6.00 to 6.30.
The matching figures for `Cc1ccn2c(-c3csc(Nc4ccccn4)n3)c(C)nc2c1` [compound 60]: 5.30 to 6.00 and 6.00 to 6.30.
Turning to `CCN(C)C(=O)c1cnc(-c2noc3ccccc23)s1` [compound 65], the pEC50 in test [1] was 5.30 to 6.00. In test [2], this molecule showed a pIC50 of 6.00 to 6.30.
The corresponding values for `O=[N+]([O-])c1ccc(-c2cn3nc(C(F)(F)F)sc3n2)cc1` [compound 68] are 6.00 to 6.30 and 6.30 to 6.70.
The matching figures for `Cc1nn2cc(-c3ccc(-c4ccccc4)cc3)nc2s1` [compound 69]: 6.00 to 6.30 and 6.30 to 6.70.
`Cc1cn2nc(NCCOc3ccc(F)cc3)sc2n1` [compound 70]: in test [1], the pEC50 is 6.00 to 6.30. The same molecule had a pIC50 in test [2] of 6.30 to 6.70.
The corresponding values for `Cc1cc(-c2nnc3sc(-c4ccc(F)cc4)nn23)[nH]n1` [compound 71] are 6.00 to 6.30 and 6.00 to 6.30.
The matching figures for `CC(C)c1cc(-c2nnc3sc(-c4ccccn4)nn23)[nH]n1` [compound 72]: 6.00 to 6.30 and 6.30 to 6.70.
Regarding `Cn1nc(C(C)(C)C)cc1-c1nn2c(-c3cccs3)nnc2s1` [compound 73], in test [1], the pEC50 was 5.30 to 6.00. The pIC50 in test [2] was 6.00 to 6.30.
The corresponding values for `CC(=O)N1CCN(c2nc3cc(C(F)(F)F)ccc3s2)CC1` [compound 74] are 5.30 to 6.00 and 6.00 to 6.30.
The matching figures for `CCOC(=O)N1CCN(c2nc(CC)nc3sc(C)cc23)CC1` [compound 75]: 5.30 to 6.00 and 6.30 to 6.70.
The matching figures for `FC(F)(F)c1nc(N2CCN(c3ncccn3)CC2)c2ccccc2n1` [compound 76]: at most 5.30 and 6.30 to 6.70.
Turning to `Fc1ccc(/C=N\N2CCN(c3ccccn3)CC2)cc1` [compound 77], the pEC50 in test [1] was at most 5.30. The same molecule had a pIC50 in test [2] of 6.00 to 6.30.
On to `Cc1ccc2cc(C(=O)N3CCN(S(=O)(=O)c4cccs4)CC3)[nH]c2c1` [compound 78], for which the pEC50 in test [1] was at most 5.30. The pIC50 in test [2] was 6.00 to 6.30.
Regarding `N#Cc1cccc(C#N)c1N1CCN(C(=O)Nc2ccccc2)CC1` [compound 79], the pEC50 in test [1] is at most 5.30. For the same molecule, the pIC50 in test [2] was 6.00 to 6.30.
As to `Fc1ccc(-c2cc(-c3ccccc3)nc(-n3cccn3)n2)cc1` [compound 82], the pEC50 in test [1] was 6.00 to 6.30. Also, in test [2], the pIC50 was above 6.70.
Take `Cc1cnn(-c2nc(-c3ccc(F)cc3)cc(C(F)(F)F)n2)c1` [compound 83]: the pEC50 in test [1] is above 6.30. Moreover, the pIC50 in test [2] was above 6.70.
The matching figures for `N#Cc1nc(NCC(O)c2ccc(OC(F)F)cc2)ccc1Cl` (stereo not shown) [compound 88]: 5.30 to 6.00 and 6.30 to 6.70.
Turning to `N#Cc1ccc(-c2ccncc2)nc1SCc1ccccn1` [compound 89], the pEC50 in test [1] was above 6.30. Moreover, the pIC50 in test [2] was 6.00 to 6.30.
The matching figures for `N#Cc1cn(-c2ccc(Cl)cc2)nc1C(=O)c1cccs1` [compound 91]: above 6.30 and 6.30 to 6.70.
With `Nc1cc(-c2ccc3c(c2)CCCC3)nn1-c1ccccc1` [compound 92], in test [1], the pEC50 is at most 5.30. The pIC50 in test [2] is 6.00 to 6.30.
Turning to `Cc1ccc(-n2nnc(-c3nc4ccccc4s3)c2N)cc1` [compound 94], in test [1], the pEC50 was above 6.30. Moreover, in test [2], the pIC50 is 6.00 to 6.30.
`Cn1c(SCc2ccc(-c3ccccc3)cc2)nnc1C(F)(F)F` [compound 95]: the pEC50 in test [1] is 5.30 to 6.00. For the same molecule, in test [2], the pIC50 was 6.00 to 6.30.
The matching figures for `COc1ccccc1-c1nnc(SCc2cccc3ccccc23)n1C` [compound 96]: 5.30 to 6.00 and 6.00 to 6.30.
For the molecule `Cc1ccc(N/N=C/c2ccc(-n3ccnc3)cc2)cc1Cl` [compound 98], the pEC50 in test [1] is 5.30 to 6.00. Moreover, in test [2], the negative logarithm of the IC50 (pIC50) was 6.00 to 6.30.
On to `O=C(N/N=C\c1ccccc1C(F)(F)F)c1n[nH]c2c1CCc1ccccc1-2` [compound 99], for which the pEC50 in test [1] is 5.30 to 6.00. Besides, the pIC50 in test [2] was 6.00 to 6.30.
The matching figures for `CCc1cccc2c(-c3cn4cc(S(N)(=O)=O)ccc4n3)c[nH]c12` [compound 100]: above 6.30 and above 6.70.
`Cc1ccc2nc(-c3ccc(-c4ccccn4)s3)cn2c1` [compound 101]: the negative-log EC50 (pEC50) in test [1] was 6.00 to 6.30. Also, the pIC50 in test [2] was 6.00 to 6.30.
Take `Clc1ccc(COc2ccc(-c3ccnc4ccnn34)cc2)cc1` [compound 104]: in test [1], the pEC50 is 5.30 to 6.00. In addition, the pIC50 in test [2] is 6.00 to 6.30.
In the case of `Cc1ccc(-c2ccc3c(C)nn(-c4ccccn4)c3n2)cc1` [compound 105], in test [1], the pEC50 was 5.30 to 6.00. The molecule also showed a pIC50 in test [2] of 6.30 to 6.70.
The corresponding values for `Cc1nn2c(C)c(C(=O)OC(C)C)nnc2c1-c1ccccc1` [compound 106] are 6.00 to 6.30 and 6.00 to 6.30.
Consider `Cc1ccc(Nc2cc(-c3ccccc3)nc3ncnn23)cc1` [compound 107], for which the pEC50 in test [1] was 5.30 to 6.00. In addition, the pIC50 in test [2] is 6.00 to 6.30.
The corresponding values for `OCCCc1nc2n(n1)C(c1cccc(Br)c1)C=C(c1ccc(Cl)cc1)N2` (stereo not shown) [compound 109] are 6.00 to 6.30 and 6.30 to 6.70.
Regarding `C/C(=N\Nc1ncc(Br)cn1)c1cccc([N+](=O)[O-])c1` [compound 112], the pEC50 in test [1] is above 6.30. Further, the pIC50 in test [2] is 6.00 to 6.30.
